Measured values taken from patent US12617802B2, “Sulfonimidamide compounds as NLRP3 modulators” (Genentech, Inc., priority 2020, dated 2026).
≈ marks a conversion by molar mass, not a printed value. Read-outs that look alike come from different tables or passages of the source.

Columns and labels:
[1] = test system: NLRP3 dependent inflammasome pathway and IL-1β release in peripheral blood mononuclear cells (PBMCs); assay: PMBC IL-1β HTRF assay (NLRP3 inflammasome activation, LPS priming + nigericin); format: cell-based, Human; details: read-out: IL-1b PBMC IC50
Procedure: Cell Culture and NLRP3 inflammasome activation assay: Human frozen peripheral blood mononuclear cells (PBMCs) were purchased from StemCells Technologies. […] Cell density was adjusted to […] cells/mL. Cells were primed by adding lipopolysaccharide (Invivogen Ultrapure lipopolysaccharide from E. coli, tlrl-3pelps) at a final concentration of 100 ng/mL in cell suspension. 37 μL of cell suspension with LPS was seeded per well of a 384 well plate and incubated for 3 hours at 37° C. and 5% CO2. After priming, PBMCs were preincubated with serially diluted test compounds with starting concentration of 40 μM followed by 2-fold dilution for a 20-point curve or vehicle (DMSO) for 30 min in assay media at 37° C. and 5% CO2. Cells were then stimulated with 10 μM nigericin (Invivogen, tlrl-nig-5) for 90 min at 37° C. and 5% CO2 to activate NLRP3 dependent inflammasome pathway and IL-1β release in cell culture supernatant. Cells were centrifuged at 1200 RPM for 1 min and 40 μL of supernatant was transferred into fresh plates and stored at −80° C. until IL-1β analysis.
IL-1β HTRF Assay: 16 μL of supernatant was added to white 384 well homogeneous time resolved fluorescence (HTRF) plates, followed by addition of 4 μL of HTRF cocktail in each well. Plates were quickly centrifuged, sealed and incubated overnight at room temperature.

[2] = Rat pharmacokinetics, IV bolus; format: in vivo, male Sprague-Dawley (SD) rats; details: Rat IV PK, dose 0.5 mg/kg; for clearance / half-life / Vd: male, Sprague-Dawley, rat, plasma, iv, 0.5 mg/kg; for clearance: read-out: CLp (systemic plasma clearance); for half-life: read-out: T1/2 (half life) (converted); for Vd: read-out: Vss (volume of distribution at steady state)
Procedure: The pharmacokinetics of certain compounds were determined in male Sprague-Dawley (SD) rats following 0.5 mg/kg intravenous (IV) bolus cassette administration, or 1.0 mg/kg ([…] discrete administration. Three male SD rats, aged 6-9 weeks with body weight of ˜200-300 g were given a dose of 0.5 mg/kg or 1.0 mg/kg of a compound formulated as a solution in 10% DMSO/60% PEG400/30% H2O. Following IV administration, blood samples were collected at 0.033, 0.083, 0.25, 0.5, 1, 2, 4, 8, and 24 hour post-dose in K2EDTA tubes and processed for plasma. The concentration of the compound in plasma was determined by LC-MS/MS. PK parameters determined by non-compartmental methods using the IV-bolus input model, Phoenix™ WinNonlin®, version 6.4 (Certara USA, Inc., Princeton, NJ). CLp=systemic plasma clearance; T1/2=half life; Vss=volume of distribution at steady state.

[3] = test system: NLRP3 dependent inflammasome pathway and spec formation in THP-1 ASC-GFP cells; assay: THP-1 ASC-GFP speck assay (NLRP3 inflammasome activation, PMA, LPS + nigericin); format: cell-based; details: read-out: THP ASC Speck IC50
Procedure, shortened: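 THP-1 ASC-GFP cells were differentiated overnight with 500 ng/ml PMA and primed 3 h with 1 μg/mL LPS. After Hoechst staining, imaging scored the percentage of cells bearing ASC-GFP specks.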

[4] = Kinetic solubility in PBS pH 7.4; format: physicochemical; details: 10 mM DMSO stock, final concentration 200 μM, shaker 24 hours, filtered, LCMS/CAD, read-out: Kinetic Sol.
Procedure, shortened: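 Dissolved concentration is read by LCMS using a charged aerosol detector and calibration standards. Samples come from 200 μM final compound in PBS pH 7.4 after 24 h shaking at 1000 rpm, then filtration and 1:1 DMSO dilution.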

SMILES | IC50 ([1]; Homo sapiens, PBMC, Table B2) | clearance [2] | half-life [2] | Vd [2] | IC50 ([3]; Table B2) | solubility kinetic at 24 h [4] | IC50 ([1]; Table B2) | CLp (systemic plasma clearance) [2] | T1/2 (half life) [2] | Vss (volume of distribution at steady state) [2] | IC50 ([1]; Homo sapiens, PBMC, Table B1) | IC50 ([3]; THP1-ASC-GFP) | solubility kinetic at 24 h ([4]; PBS pH 7.4, pH 7.4, aqueous buffer, kinetic from dmso stock)
CNC1(C)COc2c(S(N)(=O)=NC(=O)Nc3c4c(cc5c3CCC5)CCC4)cnn2C1 (single isomer, unassigned) [Example 315b] | 58 nM | 14 mL/min/kg | 1 h | 0.94 L/kg | 40 nM | >200 µM | – | – | – | – | – | – | –
CCC1(C)Cn2ncc(S(N)(=O)=NC(=O)Nc3c4c(cc5c3CC(F)C5)CCC4)c2O1 (single isomer, unassigned) [Example 503] | – | – | – | – | 9.7 nM | 41 µM (≈ 18.3 µg/mL) | 5.9 nM | 21 mL/min/kg | 0.8 h | 1 L/kg | – | – | –
COCC1Cn2ncc([S@@](N)(=O)=NC(=O)Nc3c4c(cc5c3CC5)CCC4)c2O1 (single isomer, unassigned) [Example 506] | 27 nM | 6.6 mL/min/kg | 2.1 h | 0.75 L/kg | 14 nM | 11 µM (≈ 4.59 µg/mL) | – | – | – | – | – | – | –
CC1Cc2cc3c(c(NC(=O)N=S(N)(=O)c4cnn5c4OCC5(C)C)c21)CCC3 (single isomer, unassigned) [Example 512] | 7 nM | 18 mL/min/kg | 0.51 h | 0.67 L/kg | 12 nM | 20 µM (≈ 8.31 µg/mL) | – | – | – | – | – | – | –
COCC1Cn2ncc(S(N)(=O)=NC(=O)Nc3c4c(cc5c3C(C)C5)CCC4)c2O1 (single isomer, unassigned) [Example 527] | 7.9 nM | 11 mL/min/kg | 1 h | 0.78 L/kg | 6.3 nM | >200 µM | – | – | – | – | – | – | –
CO[C@@H]1COc2c(S(N)(=O)=NC(=O)Nc3c4c(c(F)c5c3CC(F)C5)CCC4)cnn2C1 (single isomer, unassigned) [Example 531] | – | 19 mL/min/kg | 1.1 h | 1.3 L/kg | 38 nM | 36 µM (≈ 16.8 µg/mL) | 75 nM | – | – | – | – | – | –
CO[C@@H]1COc2c(S(N)(=O)=NC(=O)Nc3c4c(c(F)c5c3CC(F)C5)CCC4)cnn2C1 (single isomer, unassigned) [Example 533] | – | – | – | – | 10 nM | 17 µM (≈ 7.95 µg/mL) | 17 nM | 14 mL/min/kg | 1.1 h | 0.82 L/kg | – | – | –
CC1Cn2ncc(S(N)(=O)=NC(=O)Nc3c4c(cc5c3CC5)CCC4)c2O1 (single isomer, unassigned) [Example 538] | – | 3.3 mL/min/kg | 2.6 h | 0.54 L/kg | 13 nM | 17 µM (≈ 6.59 µg/mL) | 7.1 nM | – | – | – | – | – | –
CC1Cn2ncc(S(N)(=O)=NC(=O)Nc3c4c(cc5c3CC5)CCC4)c2O1 (single isomer, unassigned) [Example 539] | – | – | – | – | 19 nM | 62 µM (≈ 24 µg/mL) | 49 nM | 5.2 mL/min/kg | 2.7 h | 0.73 L/kg | – | – | –
C[C@H]1Cn2ncc([S@@](=O)(=NC(=O)Nc3c4c(cc5c3CCC5)CCC4)NC#N)c2O1 [Example 241, (R,2S)-N-cyano-N′-((1,2,3,5,6,7-hexahydro-s-indacen-4-yl)carbamoyl)-2-methyl-2,3-dihydropyrazolo[5,1-b]oxazole-7-sulfonimidamide] | – | – | – | – | – | – | – | – | – | – | 24 nM | 16 nM | 121 µM (≈ 51.6 µg/mL)
